Measurements taken from the supplement of paper PMC10307832.

Tests used:
Experiment in all cases: relative viability (nuclei count vs DMSO), 5 days (fraction); higher = more cells survive
KIN001-266 + Pemetrexed = compound: CCN1CCC(CC1)N2C=C(N=N2)CNC3=CC4=C(C(=CN=C4C(=C3)Cl)C#N)NC5=CC(=C(C=C5)F)Cl [KIN001-266] + Nc1nc2[nH]cc(CCc3ccc(C(=O)N[C@@H](CCC(=O)O)C(=O)O)cc3)c2c(=O)[nH]1 [Pemetrexed] (partner 0.2 µM)
Procedure, shortened: (§1)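 Lung cancer cell lines in 1536-well plates got either a single drug or a fixed anchor-drug dose together with five library-drug doses (not always all listed) in √10 steps, by pin tool, on the day after seeding. Nuclei were counted after 5 days, and relative viability is the treated-to-vehicle ratio of nuclei counts. Values are medians of duplicate plates.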

KIN001-266 + Navitoclax = compound: CCN1CCC(CC1)N2C=C(N=N2)CNC3=CC4=C(C(=CN=C4C(=C3)Cl)C#N)NC5=CC(=C(C=C5)F)Cl [KIN001-266] + CC1(C)CCC(c2ccc(Cl)cc2)=C(CN2CCN(c3ccc(C(=O)NS(=O)(=O)c4ccc(N[C@H](CCN5CCOCC5)CSc5ccccc5)c(S(=O)(=O)C(F)(F)F)c4)cc3)CC2)C1 [Navitoclax] (partner 0.5 µM)
Procedure, shortened: as §1

KIN001-266 + Vorinostat = compound: CCN1CCC(CC1)N2C=C(N=N2)CNC3=CC4=C(C(=CN=C4C(=C3)Cl)C#N)NC5=CC(=C(C=C5)F)Cl [KIN001-266] + O=C(CCCCCCC(=O)Nc1ccccc1)NO [Vorinostat] (partner 1 µM)
Procedure, shortened: as §1

KIN001-266 + Linsitinib = compound: CCN1CCC(CC1)N2C=C(N=N2)CNC3=CC4=C(C(=CN=C4C(=C3)Cl)C#N)NC5=CC(=C(C=C5)F)Cl [KIN001-266] + C[C@]1(O)C[C@@H](c2nc(-c3ccc4ccc(-c5ccccc5)nc4c3)c3c(N)nccn32)C1 [Linsitinib] (partner 1 µM)
Procedure, shortened: as §1

Cell Line	relative viability (KIN001-266 + Pemetrexed; first compound 0.08 µM)	relative viability (KIN001-266 + Pemetrexed; first compound 0.253 µM)	relative viability (KIN001-266 + Pemetrexed; first compound 0.8 µM)	relative viability (KIN001-266 + Pemetrexed; first compound 2.53 µM)	relative viability (KIN001-266 + Pemetrexed; first compound 8 µM)	relative viability (KIN001-266 + Navitoclax; first compound 0.08 µM)	relative viability (KIN001-266 + Navitoclax; first compound 0.253 µM)	relative viability (KIN001-266 + Navitoclax; first compound 0.8 µM)	relative viability (KIN001-266 + Navitoclax; first compound 2.53 µM)	relative viability (KIN001-266 + Navitoclax; first compound 8 µM)	relative viability (KIN001-266 + Vorinostat; first compound 0.08 µM)	relative viability (KIN001-266 + Vorinostat; first compound 0.253 µM)	relative viability (KIN001-266 + Vorinostat; first compound 0.8 µM)	relative viability (KIN001-266 + Vorinostat; first compound 2.53 µM)	relative viability (KIN001-266 + Vorinostat; first compound 8 µM)	relative viability (KIN001-266 + Linsitinib; first compound 0.08 µM)	relative viability (KIN001-266 + Linsitinib; first compound 0.253 µM)	relative viability (KIN001-266 + Linsitinib; first compound 0.8 µM)	relative viability (KIN001-266 + Linsitinib; first compound 2.53 µM)	relative viability (KIN001-266 + Linsitinib; first compound 8 µM)
201T	0.342	0.375	0.352	0.34	0.319	1.18	1.23	1.23	1.19	1.21	1.02	0.969	0.876	0.988	0.934	1.08	1.04	0.984	1.01	1.15
A-427	1.01	0.96	1.04	0.881	0.95	0.973	0.991	0.978	0.983	0.953	0.885	0.88	0.883	0.82	0.856	1.12	1.2	1.09	1.06	1.13
ABC-1	–	–	–	–	–	–	–	–	–	–	1.36	1.24	1.26	1.09	0.987	1.1	0.788	0.945	0.76	0.713
BEN	0.982	0.776	0.919	0.68	0.744	0.064	0.0577	0.0627	0.0713	0.0844	0.607	0.531	0.601	0.559	0.635	0.892	0.919	0.914	1.04	0.978
CAL-12T	1.25	1.1	1.15	1.2	1.15	1.47	1.31	1.17	1.33	1.15	0.728	0.662	0.903	0.73	0.895	0.802	0.811	0.774	0.863	0.493
COR-L23	0.204	0.219	0.206	0.191	0.209	0.99	1.03	1.01	1.01	0.54	0.397	0.46	0.62	0.422	0.237	0.958	0.918	0.928	0.88	0.601
COR-L 105	1.13	1.06	0.883	1.11	1.07	0.725	0.681	0.805	0.946	0.817	0.796	1.07	0.899	0.594	0.814	0.974	0.932	0.991	0.93	0.846
Calu-6	–	–	–	–	–	0.868	0.877	0.859	0.64	0.437	–	–	–	–	–	1.03	0.978	0.955	0.943	0.836
ChaGo-K-1	0.264	0.268	0.255	0.25	0.237	1.27	1.12	–	1.1	1.14	0.792	0.718	0.737	0.645	0.535	–	–	–	–	–
EKVX	0.295	0.432	0.406	0.391	0.375	1.08	0.822	0.925	0.975	0.876	0.663	0.671	0.757	0.735	0.678	1.01	0.956	1.04	0.963	1.04
EMC-BAC-2	0.505	0.504	0.449	0.462	0.529	1.15	1.1	1.08	1.16	1.22	0.53	0.614	0.564	0.505	0.849	0.781	0.792	0.877	0.86	0.862
EPLC-272H	0.373	0.364	0.374	0.319	0.323	1.16	1.42	0.966	1.11	0.763	0.417	0.662	0.621	0.429	0.384	1.26	1.34	0.842	1.15	1.16
H3255	0.55	0.585	0.5	0.506	0.505	0.689	0.566	0.494	0.482	0.615	0.882	0.839	0.792	0.721	0.836	0.841	1.03	0.884	0.841	0.713
HARA	0.289	0.276	0.256	0.242	0.206	1.17	1.03	1.14	1.11	1.03	0.544	0.603	0.481	0.462	0.502	0.863	0.851	0.925	0.935	0.735
HCC-15	0.234	0.222	0.221	0.206	0.225	0.722	0.676	0.624	0.553	0.411	0.871	0.932	0.842	0.747	0.616	0.812	0.886	0.761	0.734	0.7
HCC-44	0.678	0.651	0.607	0.592	0.642	1.03	1.08	0.946	1.06	1.03	1.15	1.09	1.04	1.14	1.11	0.669	0.678	0.687	0.742	0.622
HCC-78	0.874	0.832	0.872	0.873	0.91	0.812	0.807	0.758	0.88	0.775	0.582	0.36	0.419	0.493	0.453	0.465	0.516	0.451	0.459	0.642

Cell Line	relative viability (KIN001-266 + Pemetrexed; first compound 0.08 µM)	relative viability (KIN001-266 + Pemetrexed; first compound 0.253 µM)	relative viability (KIN001-266 + Pemetrexed; first compound 0.8 µM)	relative viability (KIN001-266 + Pemetrexed; first compound 2.53 µM)	relative viability (KIN001-266 + Pemetrexed; first compound 8 µM)	relative viability (KIN001-266 + Navitoclax; first compound 0.08 µM)	relative viability (KIN001-266 + Navitoclax; first compound 0.253 µM)	relative viability (KIN001-266 + Navitoclax; first compound 0.8 µM)	relative viability (KIN001-266 + Navitoclax; first compound 2.53 µM)	relative viability (KIN001-266 + Navitoclax; first compound 8 µM)	relative viability (KIN001-266 + Vorinostat; first compound 0.08 µM)	relative viability (KIN001-266 + Vorinostat; first compound 0.253 µM)	relative viability (KIN001-266 + Vorinostat; first compound 0.8 µM)	relative viability (KIN001-266 + Vorinostat; first compound 2.53 µM)	relative viability (KIN001-266 + Vorinostat; first compound 8 µM)	relative viability (KIN001-266 + Linsitinib; first compound 0.08 µM)	relative viability (KIN001-266 + Linsitinib; first compound 0.253 µM)	relative viability (KIN001-266 + Linsitinib; first compound 0.8 µM)	relative viability (KIN001-266 + Linsitinib; first compound 2.53 µM)	relative viability (KIN001-266 + Linsitinib; first compound 8 µM)
HCC-366	0.207	0.157	0.144	0.184	0.24	0.923	1.05	1.07	1.11	1.12	0.436	0.338	0.294	0.373	0.443	0.547	0.607	0.821	0.476	0.545
IA-LM	–	–	–	–	–	0.948	0.619	0.731	0.935	0.561	0.932	0.966	0.971	–	1.01	0.51	0.435	0.58	0.584	0.641
LCLC-103H	0.471	0.482	0.47	0.426	0.514	–	–	–	–	–	0.82	0.84	0.762	0.843	0.685	1.02	1.04	1.16	1.09	0.96
NCI-H358	0.187	0.163	0.178	0.158	0.146	–	–	–	–	–	0.663	0.634	0.759	0.611	0.262	0.695	0.628	0.821	0.667	0.33
NCI-H522	1.06	1.01	1.01	1.06	0.932	–	–	–	–	–	0.936	0.887	0.876	0.979	0.943	–	–	–	–	–
NCI-H650	1.15	0.988	1.09	1.02	0.946	–	–	–	–	–	0.321	0.558	0.505	0.455	0.598	0.914	1.05	0.976	0.979	1.03
NCI-H661	0.913	0.946	0.932	0.856	0.741	–	–	–	–	–	0.776	0.765	0.781	0.771	0.78	0.551	0.514	0.537	0.515	0.425
NCI-H727	–	–	–	–	–	0.337	0.557	0.484	0.577	0.183	1.13	1.29	1.31	1.08	1.14	0.296	0.283	0.237	0.284	0.333
NCI-H1563	0.885	0.714	0.865	0.793	0.914	–	–	–	–	–	–	–	–	–	–	1.16	1.22	1.25	1.16	1.1
NCI-H1648	0.641	0.791	0.66	0.626	0.758	–	–	–	–	–	0.438	0.502	0.515	0.453	0.422	–	–	–	–	–
NCI-H1650	0.371	0.409	0.412	0.338	0.36	1.09	1.1	1.23	1.15	0.985	0.566	0.622	0.668	0.488	0.337	–	–	–	–	–
NCI-H1703	–	–	–	–	–	0.987	1.08	1.13	0.875	0.632	–	–	–	–	–	0.786	0.493	1.11	0.488	0.747
NCI-H1792	0.882	0.9	0.81	0.757	0.857	0.601	0.627	0.581	0.652	0.661	–	–	–	–	–	0.544	0.471	0.515	0.603	0.533
NCI-H2170	0.256	0.256	0.248	0.248	0.25	0.598	0.549	0.623	0.647	0.605	0.853	0.759	0.828	0.752	0.83	–	–	–	–	–
NCI-H2342	0.785	0.738	0.619	0.705	0.91	–	–	–	–	–	0.693	0.867	0.876	0.776	1.16	–	–	–	–	–
SW 900	0.494	0.496	0.491	0.47	0.43	–	–	–	–	–	0.557	0.549	0.466	0.426	0.319	–	–	–	–	–
